Data from US7396837B2, “Antitumoral analogs of lamellarins” (Pharma Mar, S.A.U., priority 2002, dated 2008).

test system: HeLa; assay: SRB colorimetric cell growth inhibition assay, HeLa; assay type: cell-based; settings: Homo sapiens, HeLa; GI=growth inhibition; read-out: GI50 HELA
Outline: (§1)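 Growth inhibition (GI), cytostatic total growth inhibition (TGI) and cytotoxic cell-kill (LC) parameters were calculated from SRB-stained cultures held under constant compound exposure, triplicates averaged.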

Row | Compound | GI50 [µM]
1 | COc1cc(-c2c3c4cc(OC)c(OC(=O)C[C@H](N)C(C)C)cc4oc(=O)c3n3ccc4cc(OC(=O)C[C@H](N)C(C)C)c(OC)cc4c23)ccc1OC(=O)C[C@H](N)C(C)C [Compound 206] | 0.0505

same assay, conditions: Homo sapiens, HeLa; cell killing (cytotoxic effect); read-out: LC50 HELA

Row | Compound | CC50 [µM]
2 | COc1cc(-c2c3c4cc(OC)c(OC(=O)C[C@H](N)C(C)C)cc4oc(=O)c3n3ccc4cc(OC(=O)C[C@H](N)C(C)C)c(OC)cc4c23)ccc1OC(=O)C[C@H](N)C(C)C [Compound 206] | 1.93

same assay, conditions: Homo sapiens, HeLa; total growth inhibition (cytostatic effect); read-out: TGI HELA

Row | Compound | IC (TGI) [µM]
3 | COc1cc(-c2c3c4cc(OC)c(OC(=O)C[C@H](N)C(C)C)cc4oc(=O)c3n3ccc4cc(OC(=O)C[C@H](N)C(C)C)c(OC)cc4c23)ccc1OC(=O)C[C@H](N)C(C)C [Compound 206] | 0.33

test system: IGROV-ET; assay: SRB colorimetric cell growth inhibition assay, IGROV-ET (ET-743 resistant); assay type: cell-based; settings: Homo sapiens, IGROV-ET; GI=growth inhibition; read-out: GI50 IGROV-ET
Outline: as §1

Row | Compound | GI50 [µM]
4 | COc1cc(-c2c3c4cc(OC)c(OC(=O)C[C@H](N)C(C)C)cc4oc(=O)c3n3ccc4cc(OC(=O)C[C@H](N)C(C)C)c(OC)cc4c23)ccc1OC(=O)C[C@H](N)C(C)C [Compound 206] | 0.0297

same assay, conditions: Homo sapiens, IGROV-ET; cell killing (cytotoxic effect); read-out: LC50 IGROV-ET

Row | Compound | CC50 [µM]
5 | COc1cc(-c2c3c4cc(OC)c(OC(=O)C[C@H](N)C(C)C)cc4oc(=O)c3n3ccc4cc(OC(=O)C[C@H](N)C(C)C)c(OC)cc4c23)ccc1OC(=O)C[C@H](N)C(C)C [Compound 206] | 0.589

same assay, conditions: Homo sapiens, IGROV-ET; total growth inhibition (cytostatic effect); read-out: TGI IGROV-ET

Row | Compound | IC (TGI) [µM]
6 | COc1cc(-c2c3c4cc(OC)c(OC(=O)C[C@H](N)C(C)C)cc4oc(=O)c3n3ccc4cc(OC(=O)C[C@H](N)C(C)C)c(OC)cc4c23)ccc1OC(=O)C[C@H](N)C(C)C [Compound 206] | 0.19

test system: LoVo; assay: SRB colorimetric cell growth inhibition assay, LoVo; assay type: cell-based; settings: Homo sapiens, LoVo; GI=growth inhibition; read-out: GI50 LOVO
Outline: as §1

Row | Compound | GI50 [µM]
7 | COc1cc(-c2c3c4cc(OC)c(OC(=O)C[C@H](N)C(C)C)cc4oc(=O)c3n3ccc4cc(OC(=O)C[C@H](N)C(C)C)c(OC)cc4c23)ccc1OC(=O)C[C@H](N)C(C)C [Compound 206] | 0.167

same assay, conditions: Homo sapiens, LoVo; cell killing (cytotoxic effect); read-out: LC50 LOVO

Row | Compound | CC50 [µM]
8 | COc1cc(-c2c3c4cc(OC)c(OC(=O)C[C@H](N)C(C)C)cc4oc(=O)c3n3ccc4cc(OC(=O)C[C@H](N)C(C)C)c(OC)cc4c23)ccc1OC(=O)C[C@H](N)C(C)C [Compound 206] | 0.66

same assay, conditions: Homo sapiens, LoVo; total growth inhibition (cytostatic effect); read-out: TGI LOVO

Row | Compound | IC (TGI) [µM]
9 | COc1cc(-c2c3c4cc(OC)c(OC(=O)C[C@H](N)C(C)C)cc4oc(=O)c3n3ccc4cc(OC(=O)C[C@H](N)C(C)C)c(OC)cc4c23)ccc1OC(=O)C[C@H](N)C(C)C [Compound 206] | 0.331

test system: SK-MEL-28; assay: SRB colorimetric cell growth inhibition assay, SK-MEL-28; assay type: cell-based; settings: Homo sapiens, SK-MEL-28, MEL-28; GI=growth inhibition; read-out: GI50 MEL-28
Outline: as §1

Row | Compound | GI50 [µM]
10 | COc1cc(-c2c3c4cc(OC)c(OC(=O)C[C@H](N)C(C)C)cc4oc(=O)c3n3ccc4cc(OC(=O)C[C@H](N)C(C)C)c(OC)cc4c23)ccc1OC(=O)C[C@H](N)C(C)C [Compound 206] | 0.044

same assay, conditions: Homo sapiens, SK-MEL-28, MEL-28; cell killing (cytotoxic effect); read-out: LC50 MEL-28

Row | Compound | CC50 [µM]
11 | COc1cc(-c2c3c4cc(OC)c(OC(=O)C[C@H](N)C(C)C)cc4oc(=O)c3n3ccc4cc(OC(=O)C[C@H](N)C(C)C)c(OC)cc4c23)ccc1OC(=O)C[C@H](N)C(C)C [Compound 206] | 1.04

same assay, conditions: Homo sapiens, SK-MEL-28, MEL-28; total growth inhibition (cytostatic effect); read-out: TGI MEL-28

Row | Compound | IC (TGI) [µM]
12 | COc1cc(-c2c3c4cc(OC)c(OC(=O)C[C@H](N)C(C)C)cc4oc(=O)c3n3ccc4cc(OC(=O)C[C@H](N)C(C)C)c(OC)cc4c23)ccc1OC(=O)C[C@H](N)C(C)C [Compound 206] | 0.169

test system: HT-29; assay: SRB colorimetric cell growth inhibition assay, HT-29; assay type: cell-based; settings: Homo sapiens, HT-29, HT-29; GI=growth inhibition; read-out: GI50 HT-29
Outline: as §1

Row | Compound | GI50 [µM]
13 | COc1cc(-c2c3c4cc(OC)c(OC(=O)C[C@H](N)C(C)C)cc4oc(=O)c3n3ccc4cc(OC(=O)C[C@H](N)C(C)C)c(OC)cc4c23)ccc1OC(=O)C[C@H](N)C(C)C [Compound 206] | 1.32

same assay, conditions: Homo sapiens, HT-29, HT-29; cell killing (cytotoxic effect); read-out: LC50 HT-29

Row | Compound | CC50 [µM]
14 | COc1cc(-c2c3c4cc(OC)c(OC(=O)C[C@H](N)C(C)C)cc4oc(=O)c3n3ccc4cc(OC(=O)C[C@H](N)C(C)C)c(OC)cc4c23)ccc1OC(=O)C[C@H](N)C(C)C [Compound 206] | 10.5

same assay, conditions: Homo sapiens, HT-29, HT-29; total growth inhibition (cytostatic effect); read-out: TGI HT-29

Row | Compound | IC (TGI) [µM]
15 | COc1cc(-c2c3c4cc(OC)c(OC(=O)C[C@H](N)C(C)C)cc4oc(=O)c3n3ccc4cc(OC(=O)C[C@H](N)C(C)C)c(OC)cc4c23)ccc1OC(=O)C[C@H](N)C(C)C [Compound 206] | 10.5

test system: DU-145; assay: SRB colorimetric cell growth inhibition assay, DU-145; assay type: cell-based; settings: Homo sapiens, DU-145, DU-145; GI=growth inhibition; read-out: GI50 DU-145
Outline: as §1

Row | Compound | GI50 [µM]
16 | COc1cc(-c2c3c4cc(OC)c(OC(=O)C[C@H](N)C(C)C)cc4oc(=O)c3n3ccc4cc(OC(=O)C[C@H](N)C(C)C)c(OC)cc4c23)ccc1OC(=O)C[C@H](N)C(C)C [Compound 206] | 0.0218

same assay, conditions: Homo sapiens, DU-145, DU-145; cell killing (cytotoxic effect); read-out: LC50 DU-145

Row | Compound | CC50 [µM]
17 | COc1cc(-c2c3c4cc(OC)c(OC(=O)C[C@H](N)C(C)C)cc4oc(=O)c3n3ccc4cc(OC(=O)C[C@H](N)C(C)C)c(OC)cc4c23)ccc1OC(=O)C[C@H](N)C(C)C [Compound 206] | 0.0725

same assay, conditions: Homo sapiens, DU-145, DU-145; total growth inhibition (cytostatic effect); read-out: TGI DU-145

Row | Compound | IC (TGI) [µM]
18 | COc1cc(-c2c3c4cc(OC)c(OC(=O)C[C@H](N)C(C)C)cc4oc(=O)c3n3ccc4cc(OC(=O)C[C@H](N)C(C)C)c(OC)cc4c23)ccc1OC(=O)C[C@H](N)C(C)C [Compound 206] | 0.0399

test system: A-549; assay: SRB colorimetric cell growth inhibition assay, A-549; assay type: cell-based; settings: Homo sapiens, A549, A-549; GI=growth inhibition; read-out: GI50 A-549
Outline: as §1

Row | Compound | GI50 [µM]
19 | COc1cc(-c2c3c4cc(OC)c(OC(=O)C[C@H](N)C(C)C)cc4oc(=O)c3n3ccc4cc(OC(=O)C[C@H](N)C(C)C)c(OC)cc4c23)ccc1OC(=O)C[C@H](N)C(C)C [Compound 206] | 0.0558

same assay, conditions: Homo sapiens, A549, A-549; cell killing (cytotoxic effect); read-out: LC50 A-549

Row | Compound | CC50 [µM]
20 | COc1cc(-c2c3c4cc(OC)c(OC(=O)C[C@H](N)C(C)C)cc4oc(=O)c3n3ccc4cc(OC(=O)C[C@H](N)C(C)C)c(OC)cc4c23)ccc1OC(=O)C[C@H](N)C(C)C [Compound 206] | 2.77

same assay, conditions: Homo sapiens, A549, A-549; total growth inhibition (cytostatic effect); read-out: TGI A-549

Row | Compound | IC (TGI) [µM]
21 | COc1cc(-c2c3c4cc(OC)c(OC(=O)C[C@H](N)C(C)C)cc4oc(=O)c3n3ccc4cc(OC(=O)C[C@H](N)C(C)C)c(OC)cc4c23)ccc1OC(=O)C[C@H](N)C(C)C [Compound 206] | 0.41
